In patent publication US11072596B2, “Poly(ADP-ribose) polymerase inhibitor, preparation method and use” (SELECTION BIOSCIENCE LLC, priority 2017, dated 2021):

What was measured:
in vivo = test: in vivo
Protocol: SD rats were used as test animals, and the drug concentrations in plasma at different times after intravenous and intragastric administration of the compounds of examples were determined by LC/MS/MS method(s) to study the pharmacokinetics of the compound in the present disclosure in rats
Healthy adult male SD (Sprague-Dawley) rats, 3 animals per test compound, 6-9 weeks old, weighing 250±50 g, were purchased from Shanghai SLAC Laboratory Animal Co., Ltd.
The appropriate amount of sample was weighed out, 0.5% Methocel/2% tween 80 was added to the final volume, and 2 mg/mL was prepared for intragastric administration.
Each 3 male SD rats of each test compound were taken by intragastric administration at a dosage of 10 mg/kg after fasting overnight.
Blood samples of each animal were collected at different time points 0.083-24 h from jugular vein puncture after administration, K2-EDTA anticoagulation, centrifugation, and blood plasma were collected, frozen at −70° C. until LC/MS/MS analysis.

[1] = Liver microsomal stability in vitro, human; assay type: in vitro ADME; conditions: for half-life at 1 μM: pH 7.4, human liver microsomes 0.5 mg protein/mL, 1 μM test compound, 37° C., read-out: Human T1/2
Protocol: Evaluation of in vitro liver microsomal stability of the compound of the present disclosure was tested by the following method:
Buffer: 100 mM potassium phosphate buffer, pH 7.4; […] MgCl2.
Liver microsomes: human liver microsomes, Corning Cat No. 452117; Rat liver microsomes, Xenotech Cat No. R1000; Mouse liver microsomes, Xenotech Cat No. M1000; Dog liver microsomes, Xenotech Cat No. D1000; Liver microsomes of cynomolgus monkey, Corning Cat No. 452413, the final concentration was 0.5 mg protein/mL.
1. Intermediate solution: 5 μL of compound or control in stock solution (10 mM) was diluted with 495 μL of methanol (concentration: 100 μM, 99% MeOH).
2. Operating solution: the intermediate solution was diluted […] with 450 μL 100 mM potassium phosphate buffer (concentration: 10 μM, 9.9% MeOH).
1. 10 μL of compound or control solution per well was added to all plates (T0, T5, T10, T20, T30, T60, NCF60) except matrix blank.
2. Microsome solution was distributed to 96-well plates according to platemap for standby, 680 μL per well, and the mixture of microsome solution and the compound was incubated at 37° C. for about 10 minutes.
4. After preheating, NADPH regeneration system was distributed to 96-well plate, 90 μL per well, for standby according to plate map, which was added to each plate to start the reaction, 10 μL per well. The final concentration of each component in the incubation medium includes: 0.5 mg protein/mL microsome, 1 μM test compound, […], 0.99% methanol and 0.01% DMSO.
6. The above-prepared stop solution (4° C. cooling) was added to stop the reaction, 300 μL per well.
9. During centrifugation, eight new 96-well plates were loaded with 300 μL of HPLC water, and then 100 μL of supernatant was transferred for mixing, followed by LC/MS/MS detection.
10. Data analysis: The peak area of the corresponding compound and internal standard was detected by LC-MS/MS, and the T1/2 of the compound was calculated by the following formula: […]

CYP1A2 = molecular target: T1, CYP1A2 (Homo sapiens, UniProt P05177); test: Inhibition of human liver microsomal CYP450 enzymes, CYP1A2; assay type: in vitro ADME; conditions: human liver microsomes, substrate Phenacetin 30 μM; Reference = α-naphthoflavone; read-out: IC50 1A2
T1 construct: from tissue; host or cells: human liver microsomes (HLM)
T1 sequence (P05177 1-516): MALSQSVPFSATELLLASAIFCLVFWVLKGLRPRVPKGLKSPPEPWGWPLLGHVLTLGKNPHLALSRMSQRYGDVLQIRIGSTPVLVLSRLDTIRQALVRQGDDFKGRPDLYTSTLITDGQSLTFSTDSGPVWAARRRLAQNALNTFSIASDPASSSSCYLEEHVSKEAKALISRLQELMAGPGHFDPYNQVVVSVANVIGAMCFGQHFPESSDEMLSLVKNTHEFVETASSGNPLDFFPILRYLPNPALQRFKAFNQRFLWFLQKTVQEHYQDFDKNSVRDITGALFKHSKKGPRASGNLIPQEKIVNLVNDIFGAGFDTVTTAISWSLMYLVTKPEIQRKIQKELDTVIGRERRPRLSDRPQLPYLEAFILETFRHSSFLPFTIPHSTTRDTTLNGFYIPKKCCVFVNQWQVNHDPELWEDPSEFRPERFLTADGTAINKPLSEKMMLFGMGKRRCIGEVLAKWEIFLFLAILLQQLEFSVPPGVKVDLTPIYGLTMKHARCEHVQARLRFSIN
Protocol: (§1) The inhibitory effects of the compound of the present disclosure on the CYP450 enzymes of six human subtypes were determined by the following experimental method:
(§2) Reference compounds of each subtype: CYP1A2: α-naphthoflavone; CYP2C9: sulfaphenazole; CYP2C19: omeprazole; CYP3A4: ketoconazole; CYP2D6: quinidine.
(§3) Substrate concentration: CYP1A2: Phenacetin at 30 μM; CYP2C9: Diclofenac at 10 μM; CYP2C19: S-Mephenytoin at 35 μM; CYP3A4: Midazolam at 5 μM and Testosterone at 80 μM; CYP2D6: Bufuralol at 10 μM.
(§4) 6. 0.2 mg/mL of HLM was added to the test wells, 400 μL per well, and then the gradient diluted 400× test compound was added to the corresponding wells.
(§5) 7. 0.2 mg/mL of HLM was added to the test wells, 200 μL per well, and then the gradient-diluted reference inhibitor was added to the corresponding wells. Steps 6 and 7 needed to be performed on ice.
(§6) 8.1. 30 μL of test compound and reference compound were mixed in 0.2 mg/mL of HLM solution (see steps 6 and 7).
(§7) 8.2. 15 μL of 4× substrate solution (see step 4) was added.
(§8) 10. Preheated 8 mM of NADPH solution was added to the 96-well test plate (see step 3) to initiate the reaction, 15 μL per well.
(§9) 11. The test plate was incubated at 37° C.: 3A4 for 5 minutes, each of 1A2, 2C9 and 2D6 for 10 minutes, and 2C19 for 45 minutes.
(§10) 12. ACN containing internal reference was added to stop the reaction, 120 μL per well.
14. […]

CYP2C9 = molecular target: T2, CYP2C9 (Homo sapiens, UniProt P11712); test: Inhibition of human liver microsomal CYP450 enzymes, CYP2C9; assay type: in vitro ADME; conditions: human liver microsomes, substrate Diclofenac 10 μM; Reference = sulfaphenazole; read-out: IC50 2C9
T2 construct: from tissue; host or cells: human liver microsomes (HLM)
T2 sequence (P11712 whole entry): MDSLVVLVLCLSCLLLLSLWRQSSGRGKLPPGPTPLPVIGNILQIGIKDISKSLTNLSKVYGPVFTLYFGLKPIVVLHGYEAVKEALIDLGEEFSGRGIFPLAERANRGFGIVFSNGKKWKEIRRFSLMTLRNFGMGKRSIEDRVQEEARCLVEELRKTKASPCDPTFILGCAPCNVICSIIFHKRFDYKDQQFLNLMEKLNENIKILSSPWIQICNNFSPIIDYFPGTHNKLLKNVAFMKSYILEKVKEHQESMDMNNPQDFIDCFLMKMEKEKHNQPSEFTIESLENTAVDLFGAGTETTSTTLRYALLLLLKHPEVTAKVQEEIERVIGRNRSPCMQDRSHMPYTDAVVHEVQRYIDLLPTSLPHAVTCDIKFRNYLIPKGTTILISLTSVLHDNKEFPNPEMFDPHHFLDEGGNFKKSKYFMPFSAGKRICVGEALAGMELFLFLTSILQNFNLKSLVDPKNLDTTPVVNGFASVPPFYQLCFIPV
Protocol: as §1, §2, §3, §4, §5, §6, §7, §8, §9, §10
14. […]

CYP2D6 = molecular target: T3, CYP2D6 (Homo sapiens, UniProt P10635); test: Inhibition of human liver microsomal CYP450 enzymes, CYP2D6; assay type: in vitro ADME; conditions: human liver microsomes, substrate Bufuralol 10 μM; Reference = quinidine; read-out: IC50 2D6
T3 construct: from tissue; host or cells: human liver microsomes (HLM)
T3 sequence (P10635 whole entry): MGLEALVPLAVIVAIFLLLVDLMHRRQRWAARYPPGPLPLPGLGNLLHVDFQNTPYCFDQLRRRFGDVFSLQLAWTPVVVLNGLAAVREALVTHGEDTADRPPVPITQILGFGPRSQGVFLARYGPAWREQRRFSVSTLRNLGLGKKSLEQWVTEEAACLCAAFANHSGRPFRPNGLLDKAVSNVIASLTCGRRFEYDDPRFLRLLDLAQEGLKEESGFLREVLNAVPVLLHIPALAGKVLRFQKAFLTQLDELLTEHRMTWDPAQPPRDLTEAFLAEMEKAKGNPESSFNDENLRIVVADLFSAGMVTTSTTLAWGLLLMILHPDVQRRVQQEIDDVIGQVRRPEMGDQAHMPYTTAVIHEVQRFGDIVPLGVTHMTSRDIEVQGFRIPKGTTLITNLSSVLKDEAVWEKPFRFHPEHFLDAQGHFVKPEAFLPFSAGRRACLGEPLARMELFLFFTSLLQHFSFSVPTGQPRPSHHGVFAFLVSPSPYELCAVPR
Protocol: as §1, §2, §3, §4, §5, §6, §7, §8, §9, §10
14. […]

[2] = male, Sprague-Dawley, rat, in vivo, po, 10 mg/kg
[3] = SD rats, table head: Dose PO (10 mg/kg)
[4] = male, Sprague-Dawley, rat, plasma, po, 10 mg/kg, SD rats, PO 10 mg/kg

Row | F (in vivo; [2]) | T1/2 (in vivo; [2]) | AUC (in vivo; [2]) | MRT (in vivo; [2]) | metabolic stability in human liver microsomes, in words ([1]; human liver microsomes) | SMILES | half-life at 1 μM [1] | IC50 (CYP1A2) | IC50 (CYP2C9) | IC50 (CYP2D6) | F (in vivo; SD rats, PO 10 mg/kg) | CL (in vivo; [3]) | Vdss (in vivo; [3]) | AUC (in vivo; [4]) | Cmax (in vivo; male, Sprague-Dawley, rat, plasma, po, 10 mg/kg, Cmax, SD rats, PO 10 mg/kg) | MRT (in vivo; [4]) | half-life (in vivo; male, Sprague-Dawley, rat, plasma, po, 10 mg/kg, T1/2, SD rats, PO 10 mg/kg)
1 | 49.7% | 16.0 h | 3060 ng·h/mL | 7.12 h | excellent metabolic stability | NC(=O)c1cccc2cn(-c3ccc([C@]4(F)CCCNC4)cc3)nc12 (single isomer, unassigned) [Example 23, (R or S)-2-(4-(3-fluoropiperidin-3-yl)phenyl)-2H-indazole-7-carboxamide] | > 2.42 h | > 10 µM | > 10 µM | > 10 µM | – | – | – | – | – | – | –
2 | – | – | – | – | – | NC(=O)c1cccc2cn(-c3ccc([C@@H]4CCCNC4)cc3)nc12 [Niraparib, reference compound] | > 2.42 h | > 10 µM | > 10 µM | > 10 µM | 65.0% | 28.7 mL/min/kg | 8.18 L/kg | 4540 ng·h/mL | 509 ng/mL | 8.59 h | 3.4 h
